Measured values taken from patent US7910624B1, “Compositions for the treatment of blood disorders” (The Trustees of Boston University, priority 1995, dated 2011).
“Also recorded” adds a separate entry of the source.

Key:
human erythroid cells = test: DNA fragmentation by flow cytometry (propidium iodide); type: cell-based; conditions: for effect in DNA fragmentation assays: summary statement
Experimental: Such activities might limit their utility for treatment of anemias such as occur in thalassemia, but alternatively would be useful for anticancer effects. To determine cell viability, human erythroid cells were cultured in the presence and absence of these compounds for 4 days and the amount of DNA fragmentation which occurred was measured.
Flow cytometric determination of DNA profiles and DNA fragmentation were determined. Cytometric analysis was performed with a FACScan (Becton Dickenson Instruments; Columbia, Md.). The data analysis and display were performed using the Cell-Fit software program. Approximately 0.5×10^6 cells were washed twice with PBS and resuspended in 1 ml of 1% sodium citrate, 0.1% Triton X-100 and […] of propidium iodide/ml. Resulting permeabilized cells were kept in the dark at 4° C. overnight before DNA profile or DNA fragmentation analysis (Table 4).

[1] = tested on: γ-globin gene promoter and HSS-II region of the locus control region; test: In vivo footprinting (LM-PCR) of patients' erythroblasts before and during treatment; design: species or system human
Experimental: To determine whether this increase was due to the transcriptional modulation of the γ-globin genes and, if so, to examine whether protein-DNA interactions of regulatory sequences for γ-globin gene expression have been changed, in vivo footprinting analysis of the γ-globin gene promoter and HSS-II region of the locus control region (LCR) were performed. […] Compared to conventional in vitro footprinting methods, which are ordinarily employed to analyze protein-DNA interactions for promoter regions and fail to disclose tissue-specific binding of nuclear proteins to cis-acting elements, in vivo footprinting technique is able to provide bona fide information on transcription factors binding to cis-acting elements that reflects in vivo situations.
Erythroid cell-rich fractions were prepared from patients' peripheral blood or bone marrow before and during treatment, and were in vivo methylated using DMS. […] All of the footprints were analyzed two or more times to ensure reproducibility.
In the γ-globin gene promoter, a DNA fragment extending up to −200 by relative to the transcription start site is sufficient to direct efficient transcription of the γ-globin genes (K. T. McDonagh et al., J. Biol. Chem. 266:11965-74, 1991; M. J. Urich Blood 75:990-99, 1990). […] Erythroblasts from a patient with sickle cell anemia, before and after butyrate treatment were analyzed. […]

[2] = tested on: erythroid progenitor cells cultured from human cord blood; test: Fetal globin expression in human cell cultures (3H-leucine labelled globin chains, densitometry); type: cell-based
Summary of the method: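 Human cord-blood mononuclear cells were grown in IMDM with 30% FCS and 2 U/ml erythropoietin, with compound present for 12–13 days or overnight. Colonies were labelled with 3H-leucine and chased overnight in leucine-free medium with compound. Globin chains were quantified by electrophoresis with Coomassie densitometry and autoradiography, relative to untreated cells from the same donor.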

[3] = tested on: BFU-e (burst forming unit-erythroid) colonies from peripheral blood mononuclear cells; test: Stimulation of erythroid proliferation in cell cultures (BFU-e colony growth); type: cell-based, human; conditions: 0.1 mM; 13-14 days; compared with control cultures
Experimental: Peripheral blood was collected from normal volunteers and patients with anemia due to sickle cell disease or thalassemia. Mononuclear cells were isolated by Ficoll-Hypaque (Pharmacia Biotech; Piscataway, N.J.) centrifugation and cultured in Iscove's Modified Dulbecco's Media (IMDM; GIBCO/BRL; Grand Island, N.Y.) supplemented with 10% fetal calf serum, 300 μg/ml glutamine, 3 units/ml IL-3 (Amgen; Thousand Oaks, Calif.), and 2 units/ml erythropoietin (Terry Fox Labs; Vancouver, B.C.). Chemical compounds were obtained from Sigma Chemical (St. Louis, Mo.) or Aldrich Chemical (Milwaukee, Wis.), unless otherwise indicated, and formulated into pharmaceutical compositions by dissolving in aqueous solutions of media or sterile water pH adjusted to about 7.4. Solutions were sterilized by passage at least once through 0.22 micron Nalgene filters and added to cell cultures at final concentrations that are pharmaceutically achievable in vivo (typically between about 0.1 mM to 2.0 mM). Cells were incubated with compounds for between 13-14 days at 37° C. in humidified 5% CO2, and fed and passed, as necessary. Colony growth, proportion of fetal globin-expressing cells and amounts of fetal globin production were assayed. Results are presented in Table 1 as BFU-e stimulation (colony growth).

[4] = 1.0 mM to 2.0 mM, untreated cells 26%
[5] = 2.0 mM, 4 days, controls 26%, 22%

Structure (SMILES) | Degraded DNA (human erythroid cells; 0.5 mM, 4 days, controls 26%, 22%) [%] | Degraded DNA (human erythroid cells; [4]) [%] | Degraded DNA (human erythroid cells; 1.0 mM, 4 days, controls 26%, 22%) [%] | Degraded DNA (human erythroid cells; [5]) [%] | effect in DNA fragmentation assays (human erythroid cells) | in vivo footprints of HSS-II ([1]; erythroblasts from a treated sickle cell patient) | in vivo footprints over the γ-globin promoter ([1]; erythroblasts of treated patients with sickle cell anemia or β-thalassemia) | Gamma Increase ([2]; Exp. A, 0.1 mM, 12-13 days, above untreated cells) [%] | Gamma/(Gamma + Beta) ([2]; Exp. A, 0.1 mM, 12-13 days, untreated 76.0%) [%] | Gamma Increase ([2]; Exp. B, 0.5 mM, 12-13 days) [%] | Gamma/(Gamma + Beta) ([2]; Exp. B, 0.5 mM, 12-13 days, untreated 25.4%, 27.5%) [%] | Gamma Increase ([2]; Exp. C, 0.5 mM, overnight) [%] | Gamma/(Gamma + Beta) ([2]; Exp. C, 0.5 mM, overnight, untreated 52.0%) [%] | BFU-e Stimulation (colony growth) [3] [%]
CCCC(=O)O [AB, arginine butyrate] | 32 | 44 | 34 | 44 | decrease cell viability | novel in vivo footprints that were not seen in a pre-treatment sample became apparent | induces multiple transcription factors which interact with the γ-globin gene promoter; also recorded: degree of protection on G residues in FRE-γ1 consistently increased | – | – | – | – | – | – | –
O=C(O)COc1ccccc1 [PAA, Phenoxyacetic acid] | – | 20.6 | – | 20.6 | reduce DNA fragmentation | – | – | 6 | 82.0 | 13 | 38.8 | 3.6 | 55.6 | 135
